The record followed here is patent US10676485B2, “Macrocyclic MCL-1 inhibitors and methods of use” (AbbVie Inc., priority 2017, dated 2020).

The target in one assay is GST-MCL-1 (Homo sapiens (Human), UniProt Q07820). Kind of assay: TR-FRET MCL-1 binding assay (competition with probe F-Bak). In a few lines: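 Tested both in plain buffer and with 10% human serum. Top concentration 25 μM, 11 three-fold steps, 2 h room-temperature incubation of GST-MCL-1 with Tb-labelled anti-His antibody and F-Bak probe. Time-resolved FRET: 340 nm excitation, 520/525 and 495/510 nm emission.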
Sequence of GST-MCL-1 (Q07820 whole entry): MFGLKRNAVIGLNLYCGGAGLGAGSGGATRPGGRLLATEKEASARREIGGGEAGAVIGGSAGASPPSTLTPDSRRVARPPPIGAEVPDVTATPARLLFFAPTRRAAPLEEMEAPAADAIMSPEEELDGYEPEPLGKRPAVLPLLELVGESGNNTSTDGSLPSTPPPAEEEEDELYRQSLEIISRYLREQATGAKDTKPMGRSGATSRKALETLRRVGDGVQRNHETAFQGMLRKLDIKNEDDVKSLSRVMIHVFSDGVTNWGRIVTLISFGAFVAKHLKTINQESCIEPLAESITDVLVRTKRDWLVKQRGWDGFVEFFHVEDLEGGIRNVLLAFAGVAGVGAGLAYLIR

Assay [1] relates to AMO-1 human multiple myeloma tumor cell line. Briefly: AMO-1 cell viability assay (CellTiter-Glo). As to conditions: AMO1, read-out: AMO-1 Viability IC50 (μM), 10% FBS, 24 hours of compound treatment. It is filed as cell-based.
Protocol: (§1) In one exemplary set of conditions, NCI-H929 or AMO-1 (ATCC. Manassas, Va.) were plated 4.000 cells per well in 384-well tissue culture plates (Corning. Corning, N.Y.) in a total volume of 25 μL RPMI tissue culture medium supplemented with 10% fetal bovine serum (Sigma-Aldrich, St. Louis, Mo.) and treated with a 3-fold serial dilution of the compounds of interest with a Labcyte Echo from a final concentration of 10 μM to 0.0005 μM. Each concentration was tested in duplicate at least 3 independent times. A luminescent signal proportional to the number of viable cells following 24 hours of compound treatment was determined using the CellTiter-Glo® Luminescent Cell Viability Assay according to the manufacturer's recommendations (Promega Corp., Madison, Wis.). The plates were read in a Perkin Elmer Envision using a Luminescence protocol. To generate dose response curves the data is normalized to percent viability by setting the averages of the staurosporine (10 uM) and DMSO only control wells to 0% and (00)% viability respectively. The IC50 values for the compounds are generated by fitting the normalized data with Accelrys Assay Explorer 3.3 to a sigmoidal curve model using linear regression.
For assay [2], the system named is NCI-H929 human multiple myeloma tumor cell line. Briefly: NCI-H929 cell viability assay (CellTiter-Glo). It is filed as cell-based. As to conditions: NCI-H929, read-out: H929 Viability IC50 (μM), 10% FBS, 24 hours of compound treatment.
Protocol: as §1
Another assay concerns AMO-1 xenograft. Briefly: AMO-1 xenograft model of multiple myeloma. Format: in vivo. As to conditions: Mus musculus, AMO1, 25 mg/kg/day, IP, QDx1, SCID/bg mice; for change in vivo at 25 mg/kg: read-out: TGD (%); for inhibition in vivo at 25 mg/kg: read-out: TGImax (%). On the procedure:
Tumors were size matched at approximately 200 mm^3. […] Tumor volume was estimated two to three times weekly. […] Mice were euthanized when tumor volume reached 3,000 mm3 or skin ulcerations occurred. Eight mice were housed per cage. Food and water were available ad libitum.
Tumor growth inhibition is calculated by 100*(1−Tv/Cv) where Tv and Cv are the mean tumor volumes of the treated and control groups, respectively.

Where [3] appears, read: read-out: MCL-1 Binding Ki (nM, 10% HS), in the presence of 10% HS.
Setting [4] is: without HS, read-out: MCL-1 Binding Ki.

Where two headings read alike, the source gives them in different places.

Take `Cc1c(Cl)c2c(Cl)c(C)c1-c1c(-c3ccc(F)cc3)sc3ncnc(c13)O[C@@H](C(=O)O)Cc1cc(ccc1OCc1ccnc(-c3ccccc3OCC3COC(C)(C)O3)n1)OC[C@@H](CN1CCN(C)CC1)O2` (stereo in doubt) [Example 3, (7R,16R)-19,23-dichloro-10-{[2-(2-{[(4R)-2,2-dimethyl-1,3-dioxolan-4-yl]methoxy}phenyl)pyrimidin-4-yl]methoxy}-1-(4-fluorophenyl)-20,22-dimethyl-16-[(4-methylpiperazin-1-yl)methyl]-7,8,15,16-tetrahydro-18,21-etheno-13,9-(metheno)-6,14,17-trioxa-2-thia-3,5-diazacyclononadeca[1,2,3-cd]indene-7-carboxylic acid]: the inhibitory constant (Ki) turned out to be 0.365 nM at GST-MCL-1 (setting [3]) and 0.033 nM at GST-MCL-1 (setting [4]). Moreover, the IC50 was 0.00026 µM in assay [1] and 0.0037 µM in assay [2]. Besides, the change in vivo at 25 mg/kg in the assay on AMO-1 xenograft amounted to 58%. The inhibition in vivo at 25 mg/kg in the assay with AMO-1 xenograft was 75%.
Consider `Cc1c(Cl)c2c(Cl)c(C)c1-c1c(-c3ccc(F)cc3)sc3ncnc(c13)O[C@@H](C(=O)O)Cc1cc(ccc1OCc1ccnc(-c3ccc(OC[C@H]4COC(C)(C)O4)cc3)n1)OC[C@@H](CN1CCN(C)CC1)O2` [Example 1, (7R,16R)-19,23-dichloro-10-{[2-(4-{[(4S)-2,2-dimethyl-1,3-dioxolan-4-yl]methoxy}phenyl)pyrimidin-4-yl]methoxy}-1-(4-fluorophenyl)-20,22-dimethyl-16-[(4-methylpiperazin-1-yl)methyl]-7,8,15,16-tetrahydro-18,21-etheno-13,9-(metheno)-6,14,17-trioxa-2-thia-3,5-diazacyclononadeca[1,2,3-cd]indene-7-carboxylic acid], for which the Ki at GST-MCL-1 (setting [3]) came out at 0.582 nM; at GST-MCL-1 (setting [4]), 0.042 nM. Besides, the results for the concentration for half-maximal inhibition (IC50) in assay [1] and in assay [2] were 0.00031 µM and 0.00502 µM, respectively. In the assay on AMO-1 xenograft, the change in vivo at 25 mg/kg was 133%. Also, the inhibition in vivo at 25 mg/kg in the assay with AMO-1 xenograft was found to be 95%.
In the case of `Cc1c(Cl)c2c(Cl)c(C)c1-c1c(-c3ccc(F)cc3)sc3ncnc(c13)O[C@@H](C(=O)O)Cc1cc(ccc1OCc1ccnc(-c3ccc(OC[C@@H]4COCCO4)cc3)n1)OC[C@@H](CN1CCN(C)CC1)O2` [Example 7, (7R,16R)-19,23-dichloro-10-{[2-(4-{[(2S)-1,4-dioxan-2-yl]methoxy}phenyl)pyrimidin-4-yl]methoxy}-1-(4-fluorophenyl)-20,22-dimethyl-16-[(4-methylpiperazin-1-yl)methyl]-7,8,15,16-tetrahydro-18,21-etheno-13,9-(metheno)-6,14,17-trioxa-2-thia-3,5-diazacyclononadeca[1,2,3-cd]indene-7-carboxylic acid], the Ki on GST-MCL-1 (setting [3]) was determined as 0.92 nM; at GST-MCL-1 (setting [4]) it was 0.036 nM. Further, the IC50 in assay [1] amounted to 0.000171 µM; in assay [2], 0.000406 µM. The change in vivo at 25 mg/kg with AMO-1 xenograft is 477%. Besides, the inhibition in vivo at 25 mg/kg in the assay on AMO-1 xenograft is 99%.
In the case of `Cc1c(Cl)c2c(Cl)c(C)c1-c1c(-c3ccc(F)cc3)sc3ncnc(c13)O[C@@H](C(=O)O)Cc1cc(ccc1OCc1ccnc(N3CCC(F)(COC[C@@H]4COCCO4)CC3)n1)OC[C@@H](CN1CCN(C)CC1)O2` [Example 8, (7R,16R)-19,23-dichloro-10-({2-[4-({[(2S)-1,4-dioxan-2-yl]methoxy}methyl)-4-fluoropiperidin-1-yl]pyrimidin-4-yl}methoxy)-1-(4-fluorophenyl)-20,22-dimethyl-16-[(4-methylpiperazin-1-yl)methyl]-7,8,15,16-tetrahydro-18,21-etheno-13,9-(metheno)-6,14,17-trioxa-2-thia-3,5-diazacyclononadeca[1,2,3-cd]indene-7-carboxylic acid], the figures for the Ki at GST-MCL-1 (setting [3]) and on GST-MCL-1 (setting [4]) were 2.27 nM and 0.194 nM, respectively. In addition, the concentration for half-maximal inhibition (IC50) in assay [1] turned out to be 0.00086 µM; in assay [2], 0.00176 µM. Also, the change in vivo at 25 mg/kg in the assay with AMO-1 xenograft came out at 46%. Also, the inhibition in vivo at 25 mg/kg in the assay on AMO-1 xenograft came to 79%.
